The values below are quoted from earlier work in patent US20080113973A1, “Compositions and methods involving the combination of a thromboxane A2 receptor antagonist and an inhibitor of cyclooxygenase-2” (B.M.R.A. Corporation B.V., priority 2002, published 2008).

In the case of `CS(=O)(=O)c1ccc(C2=C(c3ccccc3)C(=O)OC2)cc1` [Rofecoxib], under “after oral administration”, the “Time of peak plasma concentrations” value is 2 to 3 h. In addition, the half life result (in vivo) is reported as “about 17 hours”.
